Assay results as given in patent US11655235B2, “Pyrrolidine and piperidine compounds” (YUHAN CORPORATION, priority 2019, dated 2023).
Like-named read-outs stand apart in the source and are kept apart here.

Key:
Assay type in all cases: biochemical
Recombinant human FAP = biological target: T1, Recombinant human FAP (Homo sapiens, UniProt Q12884); assay: FAP inhibition, fluorogenic substrate Z-Gly-Pro-AMC
T1 construct: purchased R&D systems
T1 sequence (Q12884 1-760): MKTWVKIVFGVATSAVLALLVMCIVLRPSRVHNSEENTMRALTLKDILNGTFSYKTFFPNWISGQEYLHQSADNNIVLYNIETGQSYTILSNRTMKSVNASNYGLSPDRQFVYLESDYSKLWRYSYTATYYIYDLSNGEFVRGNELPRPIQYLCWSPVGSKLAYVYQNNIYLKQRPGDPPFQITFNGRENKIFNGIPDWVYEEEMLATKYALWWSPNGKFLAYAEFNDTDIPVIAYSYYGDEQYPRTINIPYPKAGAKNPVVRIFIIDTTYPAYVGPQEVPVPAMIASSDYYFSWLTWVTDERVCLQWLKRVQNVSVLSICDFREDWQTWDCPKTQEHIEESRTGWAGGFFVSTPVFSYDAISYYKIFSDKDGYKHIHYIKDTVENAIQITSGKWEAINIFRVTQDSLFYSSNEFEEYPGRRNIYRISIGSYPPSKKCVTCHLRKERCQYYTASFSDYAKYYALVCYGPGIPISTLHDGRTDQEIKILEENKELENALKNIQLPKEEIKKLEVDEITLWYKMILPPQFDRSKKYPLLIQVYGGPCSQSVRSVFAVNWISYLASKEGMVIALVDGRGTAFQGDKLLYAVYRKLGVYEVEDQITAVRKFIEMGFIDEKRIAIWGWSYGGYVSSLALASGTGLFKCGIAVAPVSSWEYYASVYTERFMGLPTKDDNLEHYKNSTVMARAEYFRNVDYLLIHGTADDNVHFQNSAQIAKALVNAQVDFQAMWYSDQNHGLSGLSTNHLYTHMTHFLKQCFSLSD
In short: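 Recombinant human FAP, 10 ng per reaction, in 50 mM Tris pH 7.5 with 1 M NaCl and 1 mg/ml BSA at 25° C; substrate Z-Gly-Pro-AMC, ≤0.1% DMSO. AMC fluorescence read at ex 380/em 460 nm; % signal-rate decrease vs no-inhibitor control, 8-point curves fitted to a four-parameter logistic for IC50.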

recombinant human PREP = biological target: T2, recombinant human PREP (Homo sapiens, UniProt P48147); assay: PREP inhibition, fluorogenic substrate Z-Gly-Pro-AMC; conditions: Inhibitory Activity (IC50, nM) PREP
T2 construct: purchased R&D System
T2 sequence (P48147 1-710): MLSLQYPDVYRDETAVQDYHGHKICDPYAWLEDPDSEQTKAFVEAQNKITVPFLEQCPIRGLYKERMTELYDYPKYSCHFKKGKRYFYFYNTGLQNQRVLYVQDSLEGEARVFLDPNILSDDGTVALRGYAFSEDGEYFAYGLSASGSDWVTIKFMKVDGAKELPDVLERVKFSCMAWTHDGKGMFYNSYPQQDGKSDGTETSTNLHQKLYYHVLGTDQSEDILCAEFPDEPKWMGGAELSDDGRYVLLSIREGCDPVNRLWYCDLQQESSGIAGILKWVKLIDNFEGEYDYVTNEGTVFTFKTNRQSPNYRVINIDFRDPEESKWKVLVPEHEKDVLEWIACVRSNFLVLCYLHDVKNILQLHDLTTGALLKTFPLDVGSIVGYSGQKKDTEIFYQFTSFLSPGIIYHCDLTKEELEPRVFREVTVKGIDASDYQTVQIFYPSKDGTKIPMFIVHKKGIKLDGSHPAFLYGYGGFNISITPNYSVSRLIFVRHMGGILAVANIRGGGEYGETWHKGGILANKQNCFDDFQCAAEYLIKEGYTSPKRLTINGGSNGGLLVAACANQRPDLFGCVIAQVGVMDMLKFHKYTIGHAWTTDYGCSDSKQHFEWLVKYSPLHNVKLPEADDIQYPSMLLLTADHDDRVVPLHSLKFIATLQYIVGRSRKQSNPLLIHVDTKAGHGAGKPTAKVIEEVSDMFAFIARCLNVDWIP
In short: (§1)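 Enzyme per reaction: 50 ng DPP9, 20 ng DPP8, 10 ng each DPP7 and PREP. Compounds were serially diluted (8 points, up to 0.5% DMSO) and incubated at 25 °C.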

recombinant human DPP8 = biological target: T3, recombinant human DPP8 (Homo sapiens, UniProt Q6V1X1); assay: DPP8 inhibition, fluorogenic substrate Z-Ala-Pro-AMC
T3 construct: purchased PBS Bioscience
In short: as §1

recombinant human DPP7 = biological target: T4, recombinant human DPP7 (Homo sapiens, UniProt Q9UHL4); assay: DPP7 inhibition, fluorogenic substrate Lys-Pro-AMC
T4 construct: purchased R&D Systems
In short: as §1

recombinant human DPP9 = biological target: T5, recombinant human DPP9 (Homo sapiens, UniProt Q86TI2); assay: DPP9 inhibition, fluorogenic substrate H-Gly-Pro-AMC
T5 construct: purchased R&D Systems
In short: as §1

DPP4 = DPP4 (Homo sapiens, UniProt P27487); assay: DPP4 inhibition, fluorogenic substrate H-Gly-Pro-AMC; parameters: purchased R&D Systems
[1] = 25° C., Z-Gly-Pro-AMC substrate
[2] = 25° C., Z-Ala-Pro-AMC substrate
[3] = 25° C., H-Gly-Pro-AMC substrate
[4] = recombinant human FAP, substrate Z-Gly-Pro-AMC

DPP4, sequence (P27487 whole entry): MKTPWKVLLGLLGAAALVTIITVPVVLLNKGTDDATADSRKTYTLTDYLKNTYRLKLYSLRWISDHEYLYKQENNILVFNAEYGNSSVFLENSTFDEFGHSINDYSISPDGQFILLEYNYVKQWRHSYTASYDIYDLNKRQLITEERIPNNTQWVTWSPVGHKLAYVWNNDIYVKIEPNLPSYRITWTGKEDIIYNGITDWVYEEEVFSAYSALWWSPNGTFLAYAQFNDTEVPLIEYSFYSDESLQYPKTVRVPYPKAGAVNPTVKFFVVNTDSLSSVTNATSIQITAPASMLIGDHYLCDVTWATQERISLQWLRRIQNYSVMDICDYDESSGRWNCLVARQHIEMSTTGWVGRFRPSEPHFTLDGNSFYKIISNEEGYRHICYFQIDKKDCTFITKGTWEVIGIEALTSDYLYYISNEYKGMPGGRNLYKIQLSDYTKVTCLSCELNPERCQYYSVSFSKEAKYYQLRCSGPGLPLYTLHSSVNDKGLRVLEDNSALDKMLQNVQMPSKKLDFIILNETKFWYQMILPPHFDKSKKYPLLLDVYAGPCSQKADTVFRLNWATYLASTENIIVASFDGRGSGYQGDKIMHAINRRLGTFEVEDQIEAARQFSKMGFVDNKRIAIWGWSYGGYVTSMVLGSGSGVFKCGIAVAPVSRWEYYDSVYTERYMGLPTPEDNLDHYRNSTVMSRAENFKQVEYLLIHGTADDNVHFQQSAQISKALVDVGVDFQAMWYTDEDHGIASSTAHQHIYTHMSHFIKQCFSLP
T3 sequence (Q6V1X1 whole entry): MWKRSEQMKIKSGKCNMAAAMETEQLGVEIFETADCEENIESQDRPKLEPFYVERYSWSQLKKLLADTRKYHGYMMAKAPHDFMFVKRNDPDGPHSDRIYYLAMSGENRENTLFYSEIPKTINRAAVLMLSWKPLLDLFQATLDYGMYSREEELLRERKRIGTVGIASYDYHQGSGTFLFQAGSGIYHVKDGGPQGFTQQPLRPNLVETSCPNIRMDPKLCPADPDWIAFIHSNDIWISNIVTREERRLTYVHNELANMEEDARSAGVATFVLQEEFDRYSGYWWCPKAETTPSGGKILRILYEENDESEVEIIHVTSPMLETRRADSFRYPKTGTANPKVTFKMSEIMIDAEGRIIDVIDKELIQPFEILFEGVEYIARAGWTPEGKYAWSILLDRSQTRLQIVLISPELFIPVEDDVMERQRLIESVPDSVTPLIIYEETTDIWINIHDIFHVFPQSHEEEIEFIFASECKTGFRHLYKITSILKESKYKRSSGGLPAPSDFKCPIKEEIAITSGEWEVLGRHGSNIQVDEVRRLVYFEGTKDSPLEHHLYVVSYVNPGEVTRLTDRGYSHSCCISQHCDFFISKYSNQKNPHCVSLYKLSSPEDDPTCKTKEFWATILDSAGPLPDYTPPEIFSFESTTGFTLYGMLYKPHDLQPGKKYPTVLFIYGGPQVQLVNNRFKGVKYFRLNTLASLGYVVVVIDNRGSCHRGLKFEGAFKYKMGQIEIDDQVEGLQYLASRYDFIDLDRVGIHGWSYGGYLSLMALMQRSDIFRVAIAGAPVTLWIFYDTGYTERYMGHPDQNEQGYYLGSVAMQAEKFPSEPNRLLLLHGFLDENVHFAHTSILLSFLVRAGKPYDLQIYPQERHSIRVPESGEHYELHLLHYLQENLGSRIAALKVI
T5 sequence (Q86TI2 whole entry): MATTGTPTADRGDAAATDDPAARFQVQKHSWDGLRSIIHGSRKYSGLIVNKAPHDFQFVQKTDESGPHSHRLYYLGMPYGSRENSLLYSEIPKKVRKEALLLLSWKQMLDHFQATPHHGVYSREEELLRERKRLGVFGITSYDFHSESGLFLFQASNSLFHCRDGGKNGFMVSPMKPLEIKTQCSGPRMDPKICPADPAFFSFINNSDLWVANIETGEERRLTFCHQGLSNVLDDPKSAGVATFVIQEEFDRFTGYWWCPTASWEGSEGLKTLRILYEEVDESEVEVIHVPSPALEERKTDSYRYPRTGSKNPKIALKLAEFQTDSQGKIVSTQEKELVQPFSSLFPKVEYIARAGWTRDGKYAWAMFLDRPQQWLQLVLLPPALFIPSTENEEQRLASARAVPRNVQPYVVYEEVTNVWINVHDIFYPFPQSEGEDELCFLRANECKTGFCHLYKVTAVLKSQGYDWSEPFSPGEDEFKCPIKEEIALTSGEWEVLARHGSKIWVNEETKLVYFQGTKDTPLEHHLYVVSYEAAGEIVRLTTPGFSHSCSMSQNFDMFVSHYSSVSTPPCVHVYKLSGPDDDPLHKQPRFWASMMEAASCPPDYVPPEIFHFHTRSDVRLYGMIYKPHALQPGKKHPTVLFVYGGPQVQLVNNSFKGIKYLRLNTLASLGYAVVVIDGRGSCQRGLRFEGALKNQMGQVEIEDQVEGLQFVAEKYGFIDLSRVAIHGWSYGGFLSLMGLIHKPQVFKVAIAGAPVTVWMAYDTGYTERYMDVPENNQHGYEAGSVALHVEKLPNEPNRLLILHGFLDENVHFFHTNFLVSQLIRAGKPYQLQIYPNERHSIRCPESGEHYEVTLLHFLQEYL

Row | IC50 (Recombinant human FAP; [1]) [µM] | IC50 (recombinant human PREP; [1]) [nM] | IC50 (recombinant human DPP8; [2]) [µM] | IC50 (recombinant human DPP7) [µM] | IC50 (recombinant human DPP9; [3]) [µM] | IC50 (DPP4; [3]) [µM] | IC50 (Recombinant human FAP; [4]) [µM] | IC50 (recombinant human PREP; recombinant human PREP) [nM] | IC50 (recombinant human DPP8; recombinant human DPP8) [µM] | IC50 (recombinant human DPP7; recombinant human DPP7) [µM] | IC50 (recombinant human DPP9; recombinant human DPP9) [µM] | IC50 (DPP4; recombinant human DPP4) [µM] | Structure (SMILES)
1 | 0.00241 | 20100 | > 30 | 1.28 | 44.9 | > 10 |  |  |  |  |  |  | N#C[C@@H]1CCCN1C(=O)CN1CCC(Nc2cc(F)cc3ncccc23)CC1 [Example 123, (S)-1-(2-(4-((7-fluoroquinolin-5-yl)amino)piperidin-1-yl)acetyl)pyrrolidine-2-carbonitrile]
2 | 0.00381 | 16100 | 46.8 | 0.518 | 82.7 | > 10 |  |  |  |  |  |  | COc1cc(NC2CCN(CC(=O)N3CCC[C@H]3C#N)CC2)c2cccnc2c1 [Example 124, (S)-1-(2-(4-((7-methoxyquinolin-5-yl)amino)piperidin-1-yl)acetyl)pyrrolidine-2-carbonitrile]
3 | 0.0055 | 28900 | 33.7 | 5.55 | > 100 | > 10 |  |  |  |  |  |  | COc1ccc(NC2CCN(CC(=O)N3CCC[C@H]3C#N)CC2)c2cccnc12 [Example 125, (S)-1-(2-(4-((8-methoxyquinolin-5-yl)amino)piperidin-1-yl)acetyl)pyrrolidine-2-carbonitrile]
4 | 0.00084 | 1130 | 16.4 | 10.4 | 11 | 7.96 |  |  |  |  |  |  | N#C[C@@H]1C[C@H](F)CN1C(=O)CN1CCC(Oc2ccnc3ccc(F)cc23)CC1 [Example 126, (2S,4S)-4-fluoro-1-(2-(4-((6-fluoroquinolin-4-yl)oxy)piperidin-1-yl)acetyl)pyrrolidine-2-carbonitrile]
5 | 0.00065 | 621 | 8.73 | 9.23 | 23.7 | > 10 |  |  |  |  |  |  | N#C[C@@H]1C[C@H](F)CN1C(=O)CN1CCC(Oc2ccnc3ccc(Cl)cc23)CC1 [Example 127, (2S,4S)-1-(2-(4-((6-chloroquinolin-4-yl)oxy)piperidin-1-yl)acetyl)-4-fluoropyrrolidine-2-carbonitrile]
6 | 0.00266 | 161 | 9.84 | 0.642 | 4.85 | > 10 |  |  |  |  |  |  | COc1ccc2c(OC3CCN(CC(=O)N4C[C@@H](F)C[C@H]4C#N)CC3)ccnc2c1 [Example 129, (2S,4S)-4-fluoro-1-(2-(4-((7-methoxyquinolin-4-yl)oxy)piperidin-1-yl)acetyl)pyrrolidine-2-carbonitrile]
7 | 0.00125 | 2340 | 10.4 | 0.904 | 5.97 | > 10 |  |  |  |  |  |  | COc1cc2nccc(OC3CCN(CC(=O)N4C[C@@H](F)C[C@H]4C#N)CC3)c2cc1OC [Example 130, (2S,4S)-1-(2-(4-((6,7-dimethoxyquinolin-4-yl)oxy)piperidin-1-yl)acetyl)-4-fluoropyrrolidine-2-carbonitrile]
8 | 0.00273 | 7920 | 8.26 | 0.61 | 2.78 | 3.45 |  |  |  |  |  |  | Cc1cnc2cccc(NC3CCN(CC(=O)N4C[C@@H](F)C[C@H]4C#N)CC3)c2c1 [Example 131, (2S,4S)-4-fluoro-1-(2-(4-((3-methylquinolin-5-yl)amino)piperidin-1-yl)acetyl)pyrrolidine-2-carbonitrile]
9 | 0.00217 | 2820 | 13.9 | 0.492 | 3.64 | 7.43 |  |  |  |  |  |  | N#C[C@@H]1C[C@H](F)CN1C(=O)CN1CCC(Nc2cc(F)cc3ncccc23)CC1 [Example 132, (2S,4S)-4-fluoro-1-(2-(4-((7-fluoroquinolin-5-yl)amino)piperidin-1-yl)acetyl)pyrrolidine-2-carbonitrile]
10 | 0.00237 | 2600 | 6.48 | 0.153 | 6 | 6.02 |  |  |  |  |  |  | COc1cc(NC2CCN(CC(=O)N3C[C@@H](F)C[C@H]3C#N)CC2)c2cccnc2c1 [Example 133, (2S,4S)-4-fluoro-1-(2-(4-((7-methoxyquinolin-5-yl)amino)piperidin-1-yl)acetyl)pyrrolidine-2-carbonitrile]
11 | 0.00347 | 4990 | 5.78 | 1.02 | 3.44 | 4.14 |  |  |  |  |  |  | COc1ccc(NC2CCN(CC(=O)N3C[C@@H](F)C[C@H]3C#N)CC2)c2cccnc12 [Example 135, (2S,4S)-4-fluoro-1-(2-(4-((8-methoxyquinolin-5-yl)amino)piperidin-1-yl)acetyl)pyrrolidine-2-carbonitrile]
12 | 0.0123 | 5150 | 22.3 | 1.95 | 14.5 | 9.03 |  |  |  |  |  |  | COc1ccc2c(C(=O)N[C@H]3CCN(CC(=O)N4C[C@@H](F)C[C@H]4C#N)C3)coc2c1 [Example 136, 6-methoxy-N-[(3S)-1-[2-oxo-2-[(2S,4S)-2-cyano-4-fluoro-pyrrolidin-1-yl]ethyl]pyrrolidin-3-yl]benzofuran-3-carboxamide]
13 |  |  |  |  |  |  | 0.0168 | 4840 | > 100 | 1.16 | 36.3 | > 10 | N#C[C@@H]1CCCN1C(=O)CN1CC[C@H](Nc2cnc3ccccc3c2)C1 [Example 229, (2S)-1-[2-[(3S)-3-(3-quinolylamino)pyrrolidin-1-yl]acetyl]pyrrolidine-2-carbonitrile]
14 |  |  |  |  |  |  | 0.0093 | 8770 | > 100 | 1.36 | 17.6 | > 10 | N#C[C@@H]1CCCN1C(=O)CN1CC[C@H](Nc2ccc3ncccc3c2)C1 [Example 230, (2S)-1-[2-[(3S)-3-(6-quinolylamino)pyrrolidin-1-yl]acetyl]pyrrolidine-2-carbonitrile]
15 |  |  |  |  |  |  | 0.001 | 11500 | 12.6 | 1.51 | 21.6 | > 10 | N#Cc1ccc2c(N[C@H]3CCN(CC(=O)N4CCC[C@H]4C#N)C3)cccc2n1 [Example 231, 5-[[(3S)-1-[2-oxo-2-[(2S)-2-cyanopyrrolidin-1-yl]ethyl]pyrrolidin-3-yl]amino]quinoline-2-carbonitrile]
16 |  |  |  |  |  |  | 0.0007 | 8460 | 23.4 | 2.79 | 17.6 | > 10 | N#C[C@@H]1CCCN1C(=O)CN1CC[C@H](Nc2cccc3ncc(Cl)cc23)C1 [Example 235, (2S)-1-[2-[(3S)-3-[(3-chloro-5-quinolyl)amino]pyrrolidin-1-yl]acetyl]pyrrolidine-2-carbonitrile]
